# Several values for one entry are separate records, joined by “and”; a condition that tells them apart may be missing. Equal values may be shown once.
# Legend:
# nontransgenic mice = test: Pilot Morris water maze #1 (spatial learning and memory); conditions: for Distance / Latency: Fig 2A
# hAPP-J20 (J20) mice = test: Morris water maze #2, hAPP-J20 mice; conditions: for %Target Quadrant / Crossing Frequency / Latency to Target / Training Latency: ISRIB 2.5mpk in DMSO/PEG
# nontransgenic (NTG) mice = test: Morris water maze #2, nontransgenic (NTG) mice; conditions: for %Target Quadrant / Crossing Frequency / Latency to Target / Training Latency: ISRIB 2.5mpk in DMSO/PEG
# [1] = tested on: prion disease mouse models; conditions: in vivo, ip, 0.25 mg/kg; cited from earlier work
# [2] = ISRIB 0.25mpk, Trial 1, individual mice
# [3] = ISRIB 0.25mpk, Trial 2, individual mice
# [4] = ISRIB 0.25mpk, Trial 3, individual mice
# [5] = Fig 4E, NTG mice, individual mice
# [6] = Fig 4F, NTG mice, individual animals
smiles,measurement,setting,value
O=C(COc1ccc(Cl)cc1)NC1CCC(NC(=O)COc2ccc(Cl)cc2)CC1 (stereo not shown) [ISRIB],Distance,nontransgenic mice; [2],2065.19 and 2495.79 and 2100.99 and 2299.57 and 1083.65 and 2015.54 and 1762.54 and 1784.58 and 1973.36 and 2419.28 and 2296.21 and 1746.93 and 2593.71 and 2297.94 and 2156.55
same,Latency,nontransgenic mice; [2],120.153 (10×) and 56.5566 and 93.994 and 110.677 and 97.7644 and 92.3257
same,Distance,nontransgenic mice; [3],2252.57 and 966.538 and 2215.71 and 2563.77 and 445.101 and 2147.24 and 1156.33 and 1018.37 and 2302.03 and 2270.34 and 1964.61 and 2179.88 and 2576.82 and 1685.38 and 1279.26
same,Latency,nontransgenic mice; [3],119.753 and 49.4828 and 119.686 and 120.153 (6×) and 23.4902 and 55.5555 and 58.6587 and 114.581 and 80.8141 and 66.8669
same,Distance,nontransgenic mice; [4],2747.59 and 190.327 and 1538.1 and 2351.74 and 241.5 and 531.856 and 1005.53 and 471.756 and 1003.73 and 604.685 and 1640.73 and 351.494 and 2299.54 and 202.419 and 1735.08
same,Latency,nontransgenic mice; [4],120.153 (5×) and 12.6126 and 98.365 and 13.9807 and 31.4314 and 77.5108 and 25.1251 and 47.047 and 26.9937 and 17.4174 and 12.5459
same,Crossing Frequency,"nontransgenic mice; ISRIB 0.25mpk, individual mice, Fig 2C",6 and 2 and 0 and 3 and 1 and 7
same,learning rates to find the hidden platform (latency or distance) vs vehicle,"nontransgenic mice; MWM #1 training, 0.1 and 0.25 mpk",No differences in learning rates
same,learning during the training trials,hAPP-J20 (J20) mice; 0.25 or 2.5 mpk,did not observe an improvement in learning
same,spatial memory treatment effects,"hAPP-J20 (J20) mice; 72 hour probe trial, 0.25 or 2.5 mpk",did not observe significantly positive treatment effects
same,%Target Quadrant,"hAPP-J20 (J20) mice; Fig 4E, individual mice",31.3647% and 28.3617% and 19.6864% and 31.5871% and 22.6894% and 33.1443% and 19.1302% and 8.787% and 27.8056% and 30.5861% and 20.9098% and 21.7996%
same,Crossing Frequency,"hAPP-J20 (J20) mice; Fig 4E, individual mice",3 and 2 and 0 and 1
same,Latency to Target,"hAPP-J20 (J20) mice; Fig 4E, individual mice",3.136 and 38.1715 and 60 and 8.542 and 51.318 and 28.5619 and 11.0777
same,Crossing Frequency,"hAPP-J20 (J20) mice; Fig 4F, individual animals",3 and 1 and 0 and 4
same,Latency to Target,"hAPP-J20 (J20) mice; Fig 4F, individual animals",7.941 and 17.6843 and 60 and 4.8048 and 4.538 and 12.7461 and 25.1585 and 9.076
same,%Target Quadrant,"hAPP-J20 (J20) mice; Fig 4F, individual mice",32.9218% and 31.4759% and 23.2455% and 26.026% and 17.9068% and 37.2595% and 13.013% and 23.1343% and 9.676% and 36.9258% and 20.7986% and 27.6944%
same,Training Latency,"hAPP-J20 (J20) mice; Trial 8, individual mice (Fig 4A-D)",120.187 (5×) and 47.5142 and 79.2125 and 54.9216 and 27.9613 and 39.306 and 87.0204 and 3.937
same,Training Latency,"hAPP-J20 (J20) mice; Trial 9, individual mice (Fig 4A-D)",119.052 and 25.2252 and 42.5759 and 34.301 and 6.673 and 11.3447 and 10.8775 and 120.187 (2×) and 96.2296 and 50.5839 and 5.272
same,Training Latency,"hAPP-J20 (J20) mice; Trial 10, individual mice (Fig 4A-D)",11.3447 and 82.5492 and 23.8906 and 120.187 (3×) and 29.1625 and 43.9106 and 12.3457 and 39.2392 and 38.9056 and 8.008
same,Training Latency,"hAPP-J20 (J20) mice; Trial 11, individual mice (Fig 4A-D)",26.293 and 117.251 and 19.4861 and 120.187 (5×) and 28.2282 and 11.4781 and 13.4134 and 31.1645
same,MWM training latency NTG Trial*ISRIB (linear mixed effects regression model),"nontransgenic (NTG) mice; 0.25 mpk in 1% DMSO/saline, vs vehicle",−0.1 sec/day
same,%Target Quadrant,nontransgenic (NTG) mice; [5],53.4979% and 33.8116% and 21.5771% and 31.9208% and 40.8186% and 33.2555% and 14.7926% and 38.7054% and 50.3837% and 29.8076% and 34.8126% and 37.4819%
same,Crossing Frequency,nontransgenic (NTG) mice; [5],7 and 3 and 0 and 4 and 2 and 1 and 6
same,Latency to Target,nontransgenic (NTG) mice; [5],12.9463 and 11.6116 and 60 and 7.741 and 3.4034 and 4.6046 and 17.8846 and 5.806 and 58.7921 and 9.409 and 18.6186
same,%Target Quadrant,"nontransgenic (NTG) mice; Fig 4F, NTG mice, individual mice",51.4959% and 27.4719% and 32.1433% and 20.02% and 23.9128% and 54.4989% and 37.8156% and 28.8066% and 47.6032% and 24.024% and 39.8176%
same,Crossing Frequency,nontransgenic (NTG) mice; [6],7 and 3 and 5 and 2 and 1
same,Latency to Target,nontransgenic (NTG) mice; [6],10.7441 and 4.6046 and 20.3537 and 7.474 and 3.27 and 20.1535 and 5.6056 and 21.1545 and 23.6904 and 21.4214 and 20.287 and 19.2859
same,Training Latency,"nontransgenic (NTG) mice; NTG mice, Trial 8, individual mice (Fig 4A-D)",2.936 and 11.4781 and 15.9493 and 10.5439 and 6.139 and 7.074 and 4.8048 and 33.3667 and 6.74 and 48.7821 and 3.871 and 75.7424
same,Training Latency,"nontransgenic (NTG) mice; NTG mice, Trial 9, individual mice (Fig 4A-D)",45.6457 and 6.273 and 8.742 and 30.297 and 12.6793 and 5.739 and 57.0571 and 4.8048 and 11.8118 and 7.341 and 70.1368 and 5.138
same,Training Latency,"nontransgenic (NTG) mice; NTG mice, Trial 10, individual mice (Fig 4A-D)",3.737 and 4.004 and 28.295 and 62.9963 and 3.67 and 21.6216 and 5.939 and 22.6226 and 8.542 and 19.4861 and 60 and 4.271
same,Training Latency,"nontransgenic (NTG) mice; NTG mice, Trial 11, individual mice (Fig 4A-D)",31.7651 and 42.1088 and 14.281 and 24.7581 and 7.074 and 6.54 and 24.024 and 52.7861 and 11.6116 and 20.7541 and 39.5062 and 3.6036
same,learning during the training trials,"nontransgenic (NTG) mice; NTG mice, 0.25 or 2.5 mpk",did not observe an improvement in learning
same,spatial memory treatment effects,"nontransgenic (NTG) mice; NTG mice, 72 hour probe trial, 0.25 or 2.5 mpk",did not observe significantly positive treatment effects
same,extension of survival,[1],approximately 1 week

# Source: paper PMC5075699
